# Source: PubChem BioAssay AID743275 (Broad Institute, 2014)
# Records with an inconclusive call do not appear. The source made the active and inactive calls.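 Rule for the calls: active = compounds cutting cell count with a fitted half-maximal dose below twice the top dose, in every run; inconclusive = runs disagree, flat partial cut, or poor curve fit; inactive = every run called inactive.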
# System: CAPAN-1 cell number, Hoechst imaging, 14 days
# Assay: CAPAN-1 proliferation reduction by RAD52 inhibitors – cell-based, imaging, dry powder, set 2, dose response (AID 743275)
# Details: not given
row,Structure (SMILES),AC50 [µM]
1,OCCNc1nc(Nc2ccccc2Cl)nc2ccccc12,23.9
2,Cc1cc(C)c2sc(N(CCCN(C)C)C(=O)CN3C(=O)c4ccccc4C3=O)nc2c1,26
3,C=C1Nc2cc(-c3ccc(Cl)cc3)nn2C(NCCN(C)C)=C1C,31.6
4,Cn1nc(-c2ccc(Cl)cc2)c2cc(C(=O)NCCCN3CCCC3)sc21,15.8
5,COc1ccc(OC)c(Nc2nc(NCCCO)c3ccccc3n2)c1,24.6
6,CCN(CC)CCN(C(=O)C1=COCCO1)c1nc2c(OC)ccc(OC)c2s1,48.6
7,COc1ccc(OC)c(Nc2nc(NCCO)c3ccccc3n2)c1,30.2
8,Cc1ccc2sc(N(CCCN(C)C)C(=O)c3ccc(S(=O)(=O)N(C)Cc4ccccc4)cc3)nc2c1C,20.4
9,CCN1CCN(c2cc(C)c3cc(NC(=O)c4ccccn4)ccc3n2)CC1,40.8
10,CCCCN(CC)CCCNC(=S)Nc1ccc2nc(N3CCN(C)CC3)cc(C)c2c1,44.9
11,CCCNc1nc(NCc2cccnc2)nc(N2CCOCC2)n1,26.5
12,Cc1c(C(=O)Nc2ccc(S(=O)(=O)N(C)C3CCN(C)CC3)cc2)oc2c(Cl)cccc12,24.1
13,CC1(C)CC(NC(=O)c2ccc(Cl)c(S(=O)(=O)N(Cc3ccccc3)c3ccccc3)c2)CC(C)(C)N1,22.1
14,Cn1nc(-c2ccc(Cl)cc2)c2cc(C(=O)NCCCN3CCCCCC3)sc21,23.9
15,COc1ccc(C2NCCc3c2[nH]c2ccccc32)cc1COc1ccc(F)cc1 (stereo not given),15.2
16,CN1CCN(CCCNC(=O)c2cc3c(-c4ccc(Cl)cc4)nn(C)c3s2)CC1,7.4
17,Cc1ccc2nc(-c3ccc(NC(=S)NC4CC(C)(C)NC(C)(C)C4)cc3)sc2c1,23.6
18,CCN(CC)CCNC(=S)Nc1ccc2nc(N3CCN(CC)CC3)cc(C)c2c1,31.9
19,c1ccc(CNc2nc(NCc3ccccc3)c3ccccc3n2)cc1,7.8
20,CCCCN(CC)CCNC(=O)c1cc2c(-c3ccc(Cl)cc3)nn(C)c2s1,12.6
21,COc1cc2ccccc2cc1C(=O)N(CCN(C)C)c1nc2c(OC)ccc(OC)c2s1,33.3
22,Cc1ccc(-c2nc(C(=O)NCCCN3CCOCC3)cc3c2[nH]c2ccccc23)cc1,30.8
23,Cc1ccc2sc(N(CCCN(C)C)C(=O)c3ccc(S(=O)(=O)N(C)C4CCCCC4)cc3)nc2c1C,34.7
24,CCN1CCN(C(=S)Nc2ccc3nc(N4CCN(C)CC4)cc(C)c3c2)CC1,26.7
25,CN(C)CCCN(C(=O)c1ccc(C(=O)c2ccccc2)cc1)c1nc2cc3c(cc2s1)OCO3,30
26,CN(C)CCCNC(=S)NCC(c1ccc(Cl)cc1Cl)c1c[nH]c2ccccc12 (stereo not given),17.7
27,COc1ccc2oc(C(=O)c3ccccc3)c(NC(=O)CN3CCN(C)CC3)c2c1,38.3

# System: not listed separately
# Assay: as above
# Details: CAPAN-1 cell number, Hoechst imaging, 14 days; at 26 µM (top of the series)
row,Structure (SMILES),"activity change, negative = inhibition"
1,COc1ccc2nc(NCCNC(=S)NCCCN3CCOCC3)c(C#N)cc2c1,-10.2% (inactive)
2,Cc1cc(N2CCN(C)CC2)nc2ccc(NC(=S)N3CCN(c4ccc(Cl)cc4)CC3)cc12,16.1% (inactive)

# Same assay, conditions: CAPAN-1 cell number, Hoechst imaging, 14 days; at 50 µM (top of the series)
row,Structure (SMILES),"activity change, negative = inhibition"
1,Cc1cc(C)c2c(c1)c1nnc(SCCN3CCCCC3)nc1n2C,6.3% (inactive)
2,Cc1cc(N2CCN(C)CC2)nc2ccc(NC(=S)NCCCN3CCN(C)CC3)cc12,14.2% (inactive)
3,COc1ccccc1Nc1nc(NCCO)c2ccccc2n1,-17.4% (inactive)
4,CCNC(=O)Nc1ccc2nc(N3CCN(C)CC3)cc(C)c2c1,20.3% (inactive)
5,CCCN1CCN(CCCNC(=S)Nc2ccc3nc(N4CCN(CC)CC4)cc(C)c3c2)CC1,0.584% (inactive)
6,c1ccc(-c2cc(N3CCC(N4CCCC4)CC3)n3nccc3n2)cc1,15.5% (inactive)
7,O=c1c2c(-c3ccccc3)csc2nc2c3ccccc3c(NCCN3CCOCC3)nn12,-2.92% (inactive)
8,COc1ccc(-c2oc3ncnc(NCCCN4CCOCC4)c3c2-c2ccc(OC)cc2)cc1,20.8% (inactive)
9,CN(C)CCCNC(=S)N(CCN(C)C)Cc1cc2cc3c(cc2[nH]c1=O)OCCO3,-7.72% (inactive)
10,CN(C)c1ccc(Nc2nc(N)c3ccccc3n2)cc1,-26.6% (inactive)
11,COc1ccc(-c2nn(C)c3sc(C(=O)NCCCN4CCOCC4)cc23)cc1OC,-37% (inactive)
12,c1ccc(-c2cc(N3CCN(CCN4CCCC4)CC3)n3nccc3n2)cc1,-9.44% (inactive)
13,CCCNc1nc(Cl)nc(NCc2cccnc2)n1,4.33% (inactive)
14,CN1CCCN(c2cc(-c3ccccc3)nc3ccnn23)CC1,-7.07% (inactive)
15,CCN(CC)CCNc1nc(SC)nc2sc3c(c12)CCN(C)C3,7.64% (inactive)
16,CCN(CC)CCCN(Cc1cc2cc3c(cc2[nH]c1=O)OCO3)C(=S)NCCCN(C)C,15% (inactive)
17,Cc1cc(N2CCN(C)CC2)nc2ccc(NC(=S)NCCCN3CCc4ccccc4C3)cc12,5.99% (inactive)
18,CN(C)CCCN(C(=O)c1nc2ccccc2s1)c1nc2ccc(F)cc2s1,-18.3% (inactive)
19,Cc1ccc(C(=O)c2oc3ccccc3c2NC(=O)CN2CCN(C)CC2)cc1,9.01% (inactive)
20,COc1nc(NCc2ccccc2)nc(NCc2cccnc2)n1,-3.86% (inactive)
21,CN1CCN(c2ccc(NC(=O)c3cc(S(N)(=O)=O)ccc3N3CCOCC3)cc2)CC1,4.65% (inactive)
22,CN1CCN(CC(=O)Nc2c(C(=O)c3ccccc3)oc3ccccc23)CC1,-11.9% (inactive)
23,Cc1nccn1Cc1ccc(NC(=O)c2cccc(NC(=O)c3cccnc3)c2)cc1,12.8% (inactive)
24,CCCN(CCC)CCCNC(=S)Nc1ccc2nc(N3CCN(CC)CC3)cc(C)c2c1,-17.4% (inactive)
25,OCCNc1nc(Nc2ccccc2F)nc2ccccc12,25.7% (inactive)
26,CN(CCCN1CCOCC1)c1cc(-c2ccc(F)cc2)nc2ccnn12,-17.6% (inactive)
